Data reported in patent US10265289B2, “Method and medicines for treating melanoma” (SICHUAN JIUZHANG BIOLOGICAL SCIENCE AND TECHNOLOGY CO., LTD., priority 2015, dated 2019).

Legend:
[1] = system: mouse melanoma B16; test: Example 6: chlorogenic acid-adriamycin or chlorogenic acid-cisplatin combination against mouse melanoma B16; assay type: in vivo
Text: (§1) Each group contains 15 animals.

[2] = system: M1-type macrophage markers iNOS, IL-12, TNF-α and M2-type macrophage marker Arg; test: Example 1: macrophage marker expression (flow cytometer, real-time fluorescent quantified PCR) in mouse melanoma B16 model; assay type: in vivo; conditions: 5, 10, 20 mg/kg i.p. once a day for 13 days
Description: Each group has 15 animals. […] After successful anesthesia of mice, bilateral eyeballs were removed and mice were killed by bleeding. […] Mice were placed in supine position, with segmental […] being toward up. 5 ml serum-free DMEM medium preheated at 37° C. was drawn out using 5 ml aseptic syringe, and middle-lower abdominal skin of mice was lifted with a tweezer, then 5 ml pre-suctioned serum-free DMEM medium preheated at 37° C. was injected to abdominal cavity (note: needlepoint being toward up, avoiding intestinal canal and fat). After that, bilateral peritoneal wall was gently kneaded and pressed for about 20-30 seconds, to make the intraperitoneal fluid fully flow. When collecting the peritoneal fluid, a little cut was opened on mouse hypogastric region using a surgical scissor, and skin was […] toward two sides, to thoroughly expose the peritoneum, then it was wiped and cleaned with 75% alcoholic cotton balls for sterilization. Further, about […] of little cut was opened on mouse peritoneum using ophthalmic scissors, and the peritoneal fluid was drawn back with 5 ml aseptic syringe (Try not to absorb intestinal canal and fat, otherwise, it is easy to cause contamination of fibroblasts), then transferred to 15.0 ml centrifuge tube and centrifugated at 1200 rpm/min for 5 min, to remove the supernatant fluid. The residue was re-suspended in sterile normal saline at […] and transferred into 1.5 ml centrifuge tube for use. […] During enzymatic digestion, centrifuge tubes were shaken every 10-15 minutes. When the fluid in centrifuge tubes became turbid, the piece of tumor tissue had already disintegrated and lost its massive shape. Once being shaken, the mass would become cell clumps or single cell, indicating the tumor tissue piece had already been fully digested. The enzymatic digestion time can be suitably shortened or elongated as the digestion degree of tumor tissue. […] Cells were re-suspended in sterile normal saline at […], and transferred to 1.5 ml centrifuge tubes for use. (3) Cell phenotype was detected by flow cytometer, and the corresponding marker of same sample was determined using real-time fluorescent quantified PCR. Results were shown in FIGS. 1-3, in which FIGS. 1-3 are respectively the detection result graphs of iNOS, IL-12, Arg expression in example 1. FIG. 4 is the detection result graph of TNF-α expression in example 1.

[3] = system: M1-type macrophage marker iNOS and M2-type macrophage marker Arg; test: Example 2: maintenance of M1-type macrophages (LPS+INFγ) in mouse melanoma B16 model; assay type: in vivo; conditions: LPS + INFγ + chlorogenic acid 5, 10, 20 mg/kg, dose-dependent
Description: Each group includes 15 animals. After successful anesthesia of mice, bilateral eyeballs were removed and mice were killed by bleeding. […] Mice were placed in supine position, with segmental […] being toward up. 5 ml serum-free DMEM medium preheated at 37° C. was drawn out using 5 ml aseptic syringe, and middle-lower abdominal skin of mice was lifted with a tweezer, then 5 ml pre-suctioned serum-free DMEM medium preheated at 37° C. was injected to abdominal cavity (note: needlepoint being toward up, avoiding intestinal canal and fat). After that, bilateral peritoneal wall was gently kneaded and pressed for about 20-30 seconds, to make the intraperitoneal fluid fully flow. When collecting the peritoneal fluid, a little cut was opened on mouse hypogastric region using a surgical scissor, and skin was […] toward two sides, to thoroughly expose the peritoneum, then it was wiped and cleaned with 75% alcoholic cotton balls for sterilization. […] (3) Cell phenotype was detected by flow cytometer, and the corresponding marker of same sample was determined using real-time fluorescent quantified PCR. […]

[4] = system: M1-type and M2-type macrophages (iNOS, IL-10, Arg expression); test: Example 3: transformation of M2-type to M1-type macrophages (IL-4) in mouse melanoma B16 model; assay type: in vivo; conditions: IL-4 + chlorogenic acid 5, 10, 20 mg/kg
Description: Each group includes 15 animals. After successful anesthesia of mice, bilateral eyeballs were removed and mice were killed by bleeding. […] Mice were placed in supine position, with segmental […] being toward up. 5 ml serum-free DMEM medium preheated at 37° C. was drawn out using 5 ml aseptic syringe, and middle-lower abdominal skin of mice was lifted with a tweezer, then 5 ml medium was injected to abdominal cavity (note: needlepoint being toward up, avoiding intestinal canal and fat). After that, bilateral peritoneal wall was gently kneaded and pressed for about 20-30 seconds, to make the intraperitoneal fluid fully flow. When collecting the peritoneal fluid, a little cut was opened on mouse hypogastric region using a surgical scissor, and skin was […] toward two sides, to thoroughly expose the peritoneum, then it was wiped and cleaned with 75% alcoholic cotton balls for sterilization. […] (3) Cell phenotype was detected by flow cytometer, and the corresponding marker of same sample was determined using real-time fluorescent quantified PCR. […]

[5] = system: mouse melanoma B16; test: Example 4: tumor inhibitory rate of chlorogenic acid against mouse melanoma B16
Text: (§2) After inoculation, animals were divided into groups next day, weighed, and administration of drugs started.
Each group includes 15 animals.

[6] = system: mouse melanoma B16; test: Example 5: chlorogenic acid-cyclophosphamide combination against mouse melanoma B16
Text: as §2, §1

[7] = system: mouse melanoma B16; test: Example 7: chlorogenic acid-5-flurouracil combination against mouse melanoma B16; conditions: 5-flurouracil 500 mg/kg × 4, i.p.
Description: Next day after inoculation, animals were divided into groups, weighed, and administration of drugs started. Normal saline was administrated to mice in the negative control group by peritoneal injection at 0.2 ml/10 g, once a day.
Each group contains 12 animals. […] Tumor control rate (%) was calculated based on tumor weight.

[8] = dose-dependent, strongest at 20 mg/kg
[9] = cyclophosphamide 60 mg/kg × 1, i.p.

In the case of `N.N.[Cl][Pt][Cl]` [Cisplatin, cisplatin], the “Tumor inhibitory rate (%)” value ([1]; cisplatin 3 mg/kg × 6, i.p.) is reported as 65.97% and the “Tumor weight (g) x ± SD” value ([1]; cisplatin 3 mg/kg × 6, i.p.) is reported as 1.58 ± 0.69 g.

With `O=C(/C=C/c1ccc(O)c(O)c1)O[C@@H]1C[C@](O)(C(=O)O)C[C@@H](O)[C@H]1O` [Chlorogenic acid, 3-O-caffeoylquinic acid] the “expression of M1-type macrophage marker TNF-α (FIG. 4)” value [2] was “promote the expression”, the “expression of M1-type macrophage marker IL-12 (FIG. 2)” value [2, 8] was “obviously promote the expression” and the “expression of M1-type macrophage marker iNOS (FIG. 1)” value [2, 8] was “obviously promote the expression”. The “expression of M2-type macrophage marker Arg (FIG. 3)” value [2, 8] was “obviously inhibit the expression”, the “state of M2-type macrophage marker Arg (FIG. 6)” value [3] was “relatively lower state” and the “expression state of M1-type macrophage markers (iNOS, FIG. 5)” value ([3]; highest at 20 mg/kg) was “maintain the high expression state”. The “growth of M1-type macrophage cells (FIG. 7)” value [4] was “positive correlation with the dose”, the “growth of M2-type macrophage cells (FIG. 8)” value [4] was “negative correlation with the dose” and the “Tumor inhibitory rate (%)” value ([5]; 5 mg/kg × 13, i.p. once a day) was 17.23%. For the same molecule, the “Tumor weight (g) x ± SD” value ([5]; 5 mg/kg × 13, i.p. once a day) was 2.70 ± 0.76 g, the “Tumor inhibitory rate (%)” value ([5]; 10 mg/kg × 13, i.p. once a day) was 43.87% and the “Tumor weight (g) x ± SD” value ([5]; 10 mg/kg × 13, i.p. once a day) was 1.83 ± 0.86 g. For the same molecule, the “Tumor inhibitory rate compared with cyclophosphamide” value ([5]; 20 mg/kg chlorogenic acid vs 60 mg/kg cyclophosphamide) was “close to that of cyclophosphamide”, the “Tumor inhibitory rate (%)” value ([5]; 20 mg/kg × 13, i.p. once a day) was 48.66% and the “Tumor weight (g) x ± SD” value ([5]; 20 mg/kg × 13, i.p. once a day) was 1.68 ± 0.69 g. For the same molecule, the “effect on growth of mouse melanoma B16” value ([5]; intraperitoneal injection, 5-20 mg/kg × 13, certain dose-effect relationship) was “obviously inhibitory effect”, the “effect of combination on anti-tumor effects of cyclophosphamide” value ([6]; 20 mg/kg chlorogenic acid combined with cyclophosphamide 60 mg/kg) was “obviously improve anti-tumor effects of cyclophosphamide” and the “effect on the anti-tumor effect of adriamycin” value ([1]; 20 mg/kg chlorogenic acid + 3 mg/kg adriamycin) was “significantly potentialize”. The “effect on the anti-tumor effect of cisplatin” value ([1]; 20 mg/kg chlorogenic acid + 3 mg/kg cisplatin) was “significantly potentialize”.

`O=c1[nH]cc(F)c(=O)[nH]1` [5-flurouracil, 5-fluorouracil] was tested, and the “Tumor inhibitory rate (%)” value [7] was 86.80%, the “Tumor weight (g) x ± SD” value [7] was 0.30 ± 0.18 g and the “Body weight (g) x ± SD Initial” value ([7]; BALB/c mice, before dosing) was 19.17 ± 0.72 g.

For `COc1cccc2c1C(=O)c1c(O)c3c(c(O)c1C2=O)C[C@@](O)(C(=O)CO)C[C@@H]3O[C@H]1C[C@H](N)[C@H](O)[C@H](C)O1` [Adriamycin, adriamycin], the “Body weight change rate (%)” value ([1]; adriamycin 3 mg/kg × 6, i.p.) was 22.39%, the “Tumor inhibitory rate (%)” value ([1]; adriamycin 3 mg/kg × 6, i.p.) was 58.89% and the “Tumor weight (g) x ± SD” value ([1]; adriamycin 3 mg/kg × 6, i.p.) was 1.90 ± 0.56 g.

For `O=P1(N(CCCl)CCCl)NCCCO1` (stereo not drawn) [cyclophosphamide, reference compound], the “Tumor inhibitory rate (%)” value [5, 9] was 57.79%, the “Tumor weight (g) x ± SD” value [5, 9] was 1.38 ± 0.62 g and the “Body weight (g) x ± SD End” value ([5]; cyclophosphamide 60 mg/kg × 1, i.p., C57BL/6 mice, end of study) was 23.01 ± 1.04 g. The “Tumor inhibitory rate (%)” value [6, 9] was 61.40%, the “Tumor weight (g) x ± SD” value [6, 9] was 1.46 ± 0.54 g and the “Body weight (g) x ± SD End” value ([6]; cyclophosphamide 60 mg/kg × 1, i.p., end of study) was 22.58 ± 1.15 g.
